# In PMC6683251, “Flavanol Bioavailability in Two Cocoa Products with Different Phenolic Content. A Comparative Study in Humans” (Nutrients, 2019):
# Like-named read-outs stand apart in the source and are kept apart here.
# How the values were obtained:
# [1] = Plasma nutrikinetics of flavanol metabolites after a single serving of soluble cocoa product (HPLC-ESI-QToF-MS); format: in vivo, human; settings: for AUC / Tmax / Cmax: both sexes, oral, mean ± SD, n = 13; for AUC: human plasma 0-8 h, read-out: AUC; for Tmax / Cmax: human plasma; for Tmax: read-out: Tmax; for Cmax: read-out: Cmax
# Description: The study was carried out in thirteen healthy subjects (3 men and 10 women); the mens’ average age and body mass index were 26.67 ± 3.21 year and 22.47 ± 2.97 kg/m^2, respectively, and womens’ were 32.60 ± 9.85 year and 23.36 ± 3.73 kg/m^2, respectively. They were non-smoker, non-vegetarian, non-pregnant women, who were not taking any medication or nutritional supplements, and were not suffering from any chronic pathology or gastrointestinal disorder. The sample size was estimated attending to similar previous bioavailability studies. The volunteers gave their informed consent prior to participation.
# (§1) The present randomized, single-blind study was carried out at the Human Nutrition Unit (HNU) of the Institute of Food Science, Technology and Nutrition (ICTAN). Volunteers attended the HNU on two days, separated by two weeks. Three days previous to each visit, participants were instructed not to consume cocoa products (chocolate, soluble cocoa, etc.), juices, tea, wine, grape must, oranges, tangerines, apples, grapes, strawberries or other berries, beets, onions, soybeans and soy derivatives. In addition, volunteers were asked to complete a 24 h food intake recall the day before they attended the HNU in order to monitor any possible food restriction incompliance.
# On each intervention day, volunteers arrived at the HNU after an overnight fast. Prior to the intake of the soluble cocoa product, a nurse inserted a cannula in the cubital vein of the non-prevailing arm of the volunteers and blood samples were collected into EDTA-coated tubes at baseline (t = 0) and 0.5, 1, 2, 3, 4, 6, and 8 h after consuming the corresponding cocoa product. The soluble cocoa products, either 15 g of CC or 25 g CC-PP, were dissolved in 200 mL of semi-skimmed milk following manufacturer’s preparation instructions. Plasma was separated by centrifugation (10 min, 3000 rpm, 4 °C) and stored at −80 °C until further analysis. Urine samples were collected at different time intervals (t = −2–0, 0–4, 4–8, 8–12, and 12–24 h) in urine collection flasks that contained 0.5 g of ascorbic acid as preservative and were aliquoted and frozen at −20 °C until analysis. A polyphenol-free breakfast, lunch and afternoon snack were provided 2 h, 4 h, and 8 h after consumption of cocoa products, and water and isotonic beverages were available ad libitum.
# A liquid–liquid extraction and protein precipitation with acetonitrile was used to isolate metabolites from plasma. A 1 mL defrosted plasma sample was mixed with 50 μL of ascorbic acid (0.2 g/mL). After vortexing the aqueous mixture, it was added drop wise to 750 μL of cold acetonitrile and vortexed for 2 min before centrifuging at 12,000 rpm for 10 min at 4 °C. The supernatant was separated, and the pellet was re-extracted twice more following the same procedure. Supernatants were combined and reduced to dryness under a stream of nitrogen at 30 °C. The dried samples were resuspended in 150 μL of aqueous formic acid (0.1%) containing 10% acetonitrile acidified with 0.1% formic acid and centrifuged at 4 °C for 20 min at 14,000 rpm. The final supernatant was collected, filtered (0.45 μm pore-size, cellulose-acetate membrane filters, Albet, Dassel (Germany)) and 30 μL were analyzed by high-performance liquid chromatography coupled to electrospray ionisation and quadrupole time-of-flight mass spectrometry (HPLC-ESI-QToF-MS).
# Analyses were performed on an Agilent 1200 series LC system coupled to an Agilent 6530A Accurate-Mass Quadrupole Time-Of-Flight (Q-ToF) with ESI-Jet Stream Technology (Agilent Technologies). Compounds were separated on a reverse-phase Ascentis Express C18 (15 cm × 3 mm, […]) column (Sigma-Aldrich Química, Madrid) preceded by a Supelco 55215-U guard column at 30 °C. […]
# [2] = Urinary excretion of flavanol metabolites (0-24 h) after a single serving of soluble cocoa product (HPLC-ESI-QToF-MS); format: in vivo, human; settings: for Excreted in urine, Basal: basal urine (−2–0 h, before intake); for Excreted in urine, Basal / Excreted in urine, Total / Excreted in urine, 0–4 h / Excreted in urine, 4–8 h / Excreted in urine, 8–12 h / Excreted in urine, 12–24 h: mean ± SD, n = 13; for Excreted in urine, Total: 24 h urine
# Description: They were non-smoker, non-vegetarian, non-pregnant women, who were not taking any medication or nutritional supplements, and were not suffering from any chronic pathology or gastrointestinal disorder. The sample size was estimated attending to similar previous bioavailability studies. The volunteers gave their informed consent prior to participation.
# as §1, with “derivatives.” for “derivatives. In addition, volunteers were asked to complete a 24 h food intake recall the day before they attended the HNU in order to monitor any possible food restriction incompliance.”
# On each intervention day, volunteers arrived at the HNU after an overnight fast. […] The soluble cocoa products, either 15 g of CC or 25 g CC-PP, were dissolved in 200 mL of semi-skimmed milk following manufacturer’s preparation instructions. Plasma was separated by centrifugation (10 min, 3000 rpm, 4 °C) and stored at −80 °C until further analysis. […] A polyphenol-free breakfast, lunch and afternoon snack were provided 2 h, 4 h, and 8 h after consumption of cocoa products, and water and isotonic beverages were available ad libitum.
# Urine samples were diluted with an equivalent volume of Milli-Q water (50%) and centrifuged at 14000 rpm (10 min, 4 °C). Supernatants were filtered (0.45 μm pore-size cellulose-acetate membrane filters) and a 5 µL aliquot was directly injected into the LC-ESI-QToF-MS equipment.
# The test samples, either 30 μL of the plasma extract or 5 μL of diluted urine, were injected and separated using a mobile phase consisting of Milli-Q water (phase A) and acetonitrile (phase B), both containing 0.1% formic acid, at a flow rate of 0.3 mL/min. The mobile phase was initially programmed with 90% of solvent A and 10% of B. The elution program increased to 30% of solvent B in 10 min. Then, the initial conditions (10% solvent B) were recovered in 5 min and maintained for 5 min.
# Due to the lack of standards for certain phase II metabolites, they were tentatively quantified using the calibration curves of their corresponding phenolic precursors. […] The rest of microbial metabolites identified, derivatives of hydroxyphenylpropionic, hydroxyphenylacetic, hydroxybenzoic and hippuric acids, were quantified using their respective commercially available standards. Urine concentration of the excreted metabolites was normalized by the volume excreted in each studied interval. […] Calibration curves were freshly prepared in a pool of both plasma and urine due to matrix effects.
# Statistical analyses were carried out using the program SPSS (version 23.0, SPSS, Inc., IBM Company, New York, NY, USA). Significant differences between metabolites excreted in urine after consumption of CC and CC-PP cocoa products were evaluated based on non-parametric Wilcoxon test (p < 0.05). To determine the absorption and elimination of epicatechin metabolites after consumption of the soluble cocoa products, metabolite nutrikinetics were studied using the pharmacokinetic functions of Microsoft Excel, calculating the maximum concentration (Cmax), area under curve (AUC) and time to reach maximum concentration (Tmax). Data are expressed as mean ± standard deviation.
# [3] = 19.8 mg, after CC (19.80 mg flavanols)
# [4] = after CC-PP (68.25 mg flavanols)
# [5] = after CC (15 g in 200 mL semi-skimmed milk, 19.80 mg flavanols)
# [6] = after CC-PP (25 g in 200 mL semi-skimmed milk, 68.25 mg flavanols)
SMILES,"AUC [1, 3] [µM·h]","Tmax [1, 3] [h]","AUC [1, 4] [µM·h]","Cmax [1, 5] [nM]","Tmax [1, 4] [h]","Cmax [1, 6] [nM]","Excreted in urine, Basal ([2]; CC intervention)","Excreted in urine, Basal ([2]; CC-PP intervention)","Excreted in urine, Total ([2]; after CC (19.80 mg flavanols)) [µmol]","Excreted in urine, 0–4 h ([2]; after CC (19.80 mg flavanols))","Excreted in urine, 4–8 h ([2]; after CC (19.80 mg flavanols)) [µmol]","Excreted in urine, 8–12 h ([2]; after CC (19.80 mg flavanols))","Excreted in urine, 12–24 h ([2]; after CC (19.80 mg flavanols))","Excreted in urine, Total [2, 4] [µmol]","Excreted in urine, 0–4 h [2, 4]","Excreted in urine, 4–8 h [2, 4] [µmol]","Excreted in urine, 8–12 h [2, 4]","Excreted in urine, 12–24 h [2, 4]","Detection of un-metabolized compound in the collected biological fluids ([1]; plasma and urine, CC and CC-PP)","Detection of un-metabolized compound in urine ([2]; any of the interventions (CC, CC-PP))"
"O=C1CCC(Cc2ccc(O)c(O)c2)O1 (stereo not shown) [DHPVL, 5-(3′,4′-Dihydroxyphenyl)-γ-valerolactone]",0.124 ± 0.073,6 ± 1.6,0.192 ± 0.029,35 ± 8,5.5 ± 1.4,37 ± 7,<L.Q.,<L.Q.,0.146 ± 0.032,<L.Q.,0.146 ± 0.032,<L.Q.,<L.Q.,1.084 ± 0.199,<L.Q.,0.628 ± 0.087,0.174 ± 0.029 µmol,0.282 ± 0.082 µmol,,
O=C(O)C1OC(Oc2cc(C3Oc4cc(O)cc(O)c4CC3O)ccc2O)C(O)C(O)C1O (stereo not shown) [Epicatechin-3′-glucuronide],0.072 ± 0.028,1.5 ± 0.5,0.11 ± 0.066,25 ± 1,1.4 ± 0.8,37 ± 1,,,0.622 ± 0.130,0.355 ± 0.071 µmol,0.267 ± 0.059,<L.Q.,<L.Q.,1.653 ± 0.462,0.958 ± 0.272 µmol,0.695 ± 0.190,<L.Q.,<L.Q.,,
O=S(=O)(O)Oc1cc([C@H]2Oc3cc(O)cc(O)c3C[C@H]2O)ccc1O [Epicatechin-3′-sulfate],0.101 ± 0.023,1 ± 0.1,0.109 ± 0.076,26 ± 3,1.2 ± 0.5,42 ± 4,,,2.417 ± 0.439,1.323 ± 0.236 µmol,1.018 ± 0.178,0.076 ± 0.025 µmol,<L.Q.,7.357 ± 1.523,3.627 ± 0.797 µmol,3.572 ± 0.662,0.158 ± 0.038 µmol,<L.Q.,,
"O=C1CCC(Cc2ccc(O)c(OC3OC(C(=O)O)C(O)C(O)C3O)c2)O1 (stereo not shown) [HPVL-3′-glucuronide, 5-(4′-Hydroxyphenyl)-γ-valerolactone-3′-glucuronide]",0.106 ± 0.021,5.6 ± 0.8,1.43 ± 0.727,31 ± 4,5 ± 1.2,357 ± 200,<L.Q.,<L.Q.,0.600 ± 0.232,<L.Q.,0.497 ± 0.204,0.103 ± 0.028 µmol,<L.Q.,2.358 ± 0.766,<L.Q.,1.802 ± 0.567,0.274 ± 0.060 µmol,0.282 ± 0.130 µmol,,
"Oc1cc(O)c2c(c1)O[C@H](c1ccc(O)c(O)c1)[C@H](O)[C@H]2c1c(O)cc(O)c2c1O[C@H](c1ccc(O)c(O)c1)[C@H](O)C2 [PB2 dimer, procyanidin B2]",,,,,,,,,,,,,,,,,,,Neither un-metabolized epicatechin and catechin nor procyanidins B1 and B2 were detected,Neither epicatechin nor PB2 dimer was detected in urine
